Measured values reported in patent US11957759B1, “Rapidly accelerated fibrosarcoma (RAF) degrading compounds and associated methods of use” (Arvinas Operations, Inc., priority 2022, dated 2024).

Key:
B-RAF V600E = molecular target: T1, B-RAF V600E (Homo sapiens, UniProt P15056, V600E); assay: Target protein degradation, assay C: T-Rex 293 cells, HA-BRAF_V600E, 384 well format; format: cell-based; details: T-Rex 293 HA-BRAF_V600E cells, 24 hours, Examples 83-269; for Dmax: T-REx-293, Assay C
T1 construct: expressed in transfected cells; host or cells: T-Rex 293 cells (Invitrogen #R71007)
Experimental: C. T-Rex 293 Cells (384 Well Format)
(§1) T-Rex 293 cells were purchased from Invitrogen (#R71007), and stably transfected with a pcDNA4/TO_HA-BRAF_V600E construct, using 400 ug Zeocin for selection. V600E cells are plated in DMEM media (Gibco #11965118) containing 10% FBS (Gibco #16000044), 1% penicillin-streptomycin (ThermoFisher #15140122), 1:250 zeocin (Invitrogen #R-25005), and 1 ng/mL doxycycline (Selleckchem #4163) at a density of 7,500 cells/well in 45 μl on PDL coated, black clear bottom 384 well plates (Corning #354663) and incubated at 37° C.+5% CO2 for 24 hours. The following day, PROTAC compounds in a 1:3 11 point dilution are diluted into DMEM media using an Agilent Bravo. 5 ul of PROTACs suspended in DMEM media are added to the cells, with a final assay concentration ranging from 300 nM to 5 pM in 0.5% DMSO. Plates are incubated at 37° C.+5% CO2 for 24 hours. At the end of treatment, media is aspirated, and cells are fixed in 50 uL 4% PFA (EMS #15710) in PBS++(PBS, 1 mM CaCl, 1 mM MgCl) at RT for 15 minutes. Cells are washed 2× with 60 uL PBS++ and permeabilized in 50 uL 1% Triton X-100 (Sigma #93443) in PBS++ for 5 minutes at RT. Cells are washed in PBS++ prior to blocking with 50 uL Licor blocking buffer (Licor #927-60001) for 1 hour at RT. HA-tagged BRAF was stained using 50 uL HA antibody (CST #3724) at 1:1000 in Licor blocking buffer for two hours at RT. Primary is aspirated before adding 50 ul of secondary antibody solution containing 1:1000 Hoechst (ThermoFisher #62249), 1:1000 HCS CellMask Deep Red Stain (ThermoFisher #H32721), and 1:5000 goat anti-rabbit IgG Alexa-Fluor 488 (ThermoFisher #A32731) in PBS++ for 1 hr at RT. Plates are washed 4× with 60 uL PBS++, then sealed with Adhesive Black Light Absorbing Film (VWR #89087-692) and imaged on the ThermoFisher CX7 PRO high content instrument. BRAF intensity is quantified in HCS Studio software (ThermoFisher), using a custom script, exported, analyzed using KNIME, and curve curation is performed in an ELN (Scilligence). Cell toxicity is measured via comparing number of nuclei in PROTAC treated wells to DMSO controls.
(§2) The concentration of an exemplary compound that leads to half maximal degradation (DC50) as well as the maximum degradation observed (Dmax, conventionally expressed as a percentage of control) is shown below in Table 2.

B-RAF G466V = molecular target: T2, B-RAF G466V (Homo sapiens, UniProt P15056, G466V); assay: Target protein degradation, assay D: T-Rex 293 cells, HA-BRAF_G466V, 384 well format; format: cell-based; details: T-Rex 293 HA-BRAF_G466V cells, 24 hours, Examples 83-269; for DC50: Assay D; for Dmax: T-REx-293, Assay D
T2 construct: expressed in transfected cells; host or cells: T-Rex 293 cells (Invitrogen #R71007)
Experimental: D. T-Rex 293 Cells (384 Well Format)
as §1, with “pcDNA4/TO_HA-BRAF_G466V” for “pcDNA4/TO_HA-BRAF_V600E”, “G466V” for “V600E”
as §2

T2 sequence (P15056 whole entry G466V): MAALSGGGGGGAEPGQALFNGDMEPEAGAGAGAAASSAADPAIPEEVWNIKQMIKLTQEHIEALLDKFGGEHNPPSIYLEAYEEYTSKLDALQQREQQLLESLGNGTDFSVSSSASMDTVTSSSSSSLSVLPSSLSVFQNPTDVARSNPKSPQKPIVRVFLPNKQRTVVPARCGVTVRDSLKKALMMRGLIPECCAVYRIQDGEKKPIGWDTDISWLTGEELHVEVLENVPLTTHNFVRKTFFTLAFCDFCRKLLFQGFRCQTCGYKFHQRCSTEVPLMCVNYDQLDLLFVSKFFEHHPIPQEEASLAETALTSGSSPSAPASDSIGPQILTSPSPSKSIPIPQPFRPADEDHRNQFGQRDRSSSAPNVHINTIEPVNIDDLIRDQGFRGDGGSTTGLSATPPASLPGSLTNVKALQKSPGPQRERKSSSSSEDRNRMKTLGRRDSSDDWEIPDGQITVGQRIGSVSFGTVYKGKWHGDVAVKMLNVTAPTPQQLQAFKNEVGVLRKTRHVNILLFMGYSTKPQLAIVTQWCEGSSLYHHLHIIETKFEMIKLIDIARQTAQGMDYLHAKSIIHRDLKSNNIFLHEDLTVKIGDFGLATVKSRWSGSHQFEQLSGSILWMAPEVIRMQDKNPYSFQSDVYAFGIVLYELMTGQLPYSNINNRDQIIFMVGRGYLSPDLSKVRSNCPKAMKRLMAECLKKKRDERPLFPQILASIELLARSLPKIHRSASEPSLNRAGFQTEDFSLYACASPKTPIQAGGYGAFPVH
T1 sequence (P15056 whole entry V600E): as the sequence (P15056 whole entry G466V) above, with V466G, V600E counted along it

Row | SMILES | DC50 (B-RAF V600E; Assay C) [nM] | Dmax (B-RAF V600E) [%] | DC50 (B-RAF G466V) [nM] | Dmax (B-RAF G466V) [%] | B-RAF V600E DMax (%) (B-RAF V600E; Assay C)
1 | N#Cc1c(NS(=O)(=O)N2CC[C@@H](F)C2)ccc(F)c1Oc1ccc2ncn(-c3ccc(N4CCC(CN5CC(c6ccc7c(c6)CN([C@H]6CCC(=O)NC6=O)C7=O)C5)CC4)cc3)c(=O)c2c1 [Example 215, (3R)-N-(2-cyano-3-{[3-(4-{4-[(3-{2-[(3S)-2,6-dioxopiperidin-3-yl]-1-oxo-2,3-dihydro-1H-isoindol-5-yl}azetidin-1-yl)methyl]piperidin-1-yl}phenyl)-4-oxo-3,4-dihydroquinazolin-6-yl]oxy}-4-fluorophenyl)-3-fluoropyrrolidine-1-sulfonamide] | 50 to 500 | 35 to 70 | 1 to 10 | ≤ 35 | –
2 | N#Cc1c(NS(=O)(=O)N2CC[C@@H](F)C2)ccc(F)c1Oc1ccc2ncn(-c3ccc(N4CCC(CN5CC(c6ccc7c(c6)CN([C@@H]6CCC(=O)NC6=O)C7=O)C5)CC4)cc3)c(=O)c2c1 [Example 216] | 50 to 500 | 35 to 70 | 1 to 10 | ≤ 35 | –
3 | C[C@H]1CN(CC2CCN(c3ccc4c(c3F)CN([C@H]3CCC(=O)NC3=O)C4=O)CC2)CCN1c1ccc(-n2cnc3ccc(Oc4c(F)ccc(NS(=O)(=O)N5CC[C@@H](F)C5)c4C#N)cc3c2=O)cc1 [Example 117, (3R)-N-{2-cyano-3-[(3-(4-[(2S)-4-[(1-{2-[(3S)-2,6-dioxopiperidin-3-yl]-4-fluoro-1-oxo-2,3-dihydro-1H-isoindol-5-yl}piperidin-4-yl)methyl]-2-methylpiperazin-1-yl]phenyl}-4-oxo-3,4-dihydroquinazolin-6-yl)oxy]-4-fluorophenyl}-3-fluoropyrrolidine-1-sulfonamide] | 50 to 500 | 35 to 70 | – | – | –
4 | N#Cc1c(NS(=O)(=O)N2CC[C@@H](F)C2)ccc(F)c1Oc1ccc2ncn(-c3ccc(N4CCN(CC5CCN(c6ccc(C7CCC(=O)NC7=O)nc6)CC5)CC4)cc3)c(=O)c2c1 (stereo partly drawn) [Example 95, (3R)-N-{2-cyano-3-[(3-{4-[4-({1-[6-(2,6-dioxopiperidin-3-yl)pyridin-3-yl]piperidin-4-yl}methyl)piperazin-1-yl]phenyl}-4-oxo-3,4-dihydroquinazolin-6-yl)oxy]-4-fluorophenyl}-3-fluoropyrrolidine-1-sulfonamide] | 5 to 50 | 35 to 70 | 1 to 10 | ≤ 35 | –
5 | CCN(C)S(=O)(=O)Nc1ccc(F)c(Oc2ccc3ncn(-c4ccc(N5CCC(CN6CCC(c7ccc8c(c7)CN(C7CCC(=O)NC7=O)C8=O)CC6)CC5)cc4)c(=O)c3c2)c1C#N (stereo not drawn) [Example 115, 2-[(3-{4-[4-({4-[2-(2,6-dioxopiperidin-3-yl)-1-oxo-2,3-dihydro-1H-isoindol-5-yl]piperidin-1-yl}methyl)piperidin-1-yl]phenyl}-4-oxo-3,4-dihydroquinazolin-6-yl)oxy]-6-{[ethyl(methyl)sulfamoyl]amino}-3-fluorobenzonitrile] | 50 to 500 | 35 to 70 | – | – | –
6 | C[C@H]1CN(CC2CCN(c3ccc4c(c3F)CN([C@@H]3CCC(=O)NC3=O)C4=O)CC2)CCN1c1ccc(-n2cnc3ccc(Oc4c(F)ccc(NS(=O)(=O)N5CC[C@@H](F)C5)c4C#N)cc3c2=O)cc1 [Example 118, (3R)-N-{2-cyano-3-[(3-(4-[(2S)-4-[(1-{2-[(3R)-2,6-dioxopiperidin-3-yl]-4-fluoro-1-oxo-2,3-dihydro-1H-isoindol-5-yl}piperidin-4-yl)methyl]-2-methylpiperazin-1-yl]phenyl}-4-oxo-3,4-dihydroquinazolin-6-yl)oxy]-4-fluorophenyl}-3-fluoropyrrolidine-1-sulfonamide] | > 500 | – | – | – | –
7 | N#Cc1c(NS(=O)(=O)N2CC[C@@H](F)C2)ccc(F)c1Oc1ccc2ncn(-c3ccc(N4CCN(CC5CCN(c6ccc7c(c6)CN(C6CCC(=O)NC6=O)C7=O)CC5)CC4)s3)c(=O)c2c1 (stereo partly drawn) [Example 116, (3R)-N-{2-cyano-3-[(3-{5-[4-({1-[2-(2,6-dioxopiperidin-3-yl)-1-oxo-2,3-dihydro-1H-isoindol-5-yl]piperidin-4-yl}methyl)piperazin-1-yl]thiophen-2-yl}-4-oxo-3,4-dihydroquinazolin-6-yl)oxy]-4-fluorophenyl}-3-fluoropyrrolidine-1-sulfonamide] | 50 to 500 | ≤ 35 | – | – | –
8 | Cc1cc(N2CCC(CN3CCN(c4ccc(-n5cnc6ccc(Oc7c(F)ccc(NS(=O)(=O)N8CC[C@@H](F)C8)c7C#N)cc6c5=O)cc4)CC3)CC2)c(F)c2c1C(=O)N(C1CCC(=O)NC1=O)C2 (single isomer, unassigned) [Example 121, (3R)-N-(2-cyano-3-{[3-(4-{4-[(1-{2-[(3R*)-2,6-dioxopiperidin-3-yl]-4-fluoro-7-methyl-1-oxo-2,3-dihydro-1H-isoindol-5-yl}piperidin-4-yl)methyl]piperazin-1-yl}phenyl)-4-oxo-3,4-dihydroquinazolin-6-yl]oxy}-4-fluorophenyl)-3-fluoropyrrolidine-1-sulfonamide] | 50 to 500 | – | – | – | B (35 < B < 70)
9 | N#Cc1c(NS(=O)(=O)N2CC[C@@H](F)C2)ccc(F)c1Oc1ccc2ncn(-c3ccc(N4CCC(CN5CC6(CC(c7ccc8c(c7)C(=O)N(C7CCC(=O)NC7=O)C8=O)C6)C5)CC4)cc3)c(=O)c2c1 (stereo partly drawn) [Example 119, (3R)-N-{2-cyano-3-[(3-{4-[4-({6-[2-(2,6-dioxopiperidin-3-yl)-1,3-dioxo-2,3-dihydro-1H-isoindol-5-yl]-2-azaspiro[3.3]heptan-2-yl}methyl)piperidin-1-yl]phenyl}-4-oxo-3,4-dihydroquinazolin-6-yl)oxy]-4-fluorophenyl}-3-fluoropyrrolidine-1-sulfonamide] | > 500 | – | – | – | –
10 | Cc1cc(N2CCC(CN3CCN(c4ccc(-n5cnc6ccc(Oc7c(F)ccc(NS(=O)(=O)N8CC[C@@H](F)C8)c7C#N)cc6c5=O)cc4)CC3)CC2)c(F)c2c1C(=O)N(C1CCC(=O)NC1=O)C2 (single isomer, unassigned) [Example 120, (3R)-N-(2-cyano-3-{[3-(4-{4-[(1-{2-[(3R*)-2,6-dioxopiperidin-3-yl]-4-fluoro-7-methyl-1-oxo-2,3-dihydro-1H-isoindol-5-yl}piperidin-4-yl)methyl]piperazin-1-yl}phenyl)-4-oxo-3,4-dihydroquinazolin-6-yl]oxy}-4-fluorophenyl)-3-fluoropyrrolidine-1-sulfonamide] | 5 to 50 | ≤ 35 | – | – | –
